This is an account of results in US8778966B2, “Quinolinone derivatives as PARP and tank inhibitors” (Janssen Pharmaceutica, NV, priority 2007, dated 2014).

Read-outs that look alike come from different tables or passages of the source. Some results are limits rather than exact numbers.

The melting point is the temperature of the solid-liquid transition.

One data set relates to PC-3 cells. In words: Antiproliferative activity, Alamar Blue assay, PC-3 cells. Format: cell-based, human. Particulars: for IC50: Homo sapiens, PC-3, PC3 cells, read-out: PC3 antiproliferative activity pIC50 (converted). The method in brief:
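Resazurin-based fluorescence (540 nm ex/590 nm em) measured after 4-day compound treatment plus 24 hrs dye incubation at 37° C. Cells plated at 4.5×10^3 cells/ml, adhered 24 hr first. pIC50 from probit-derived IC50 on % viable cells versus untreated, triplicate wells.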
In general terms: The colour change of resazurin is a common sign of viable cells or microbes.

The test system of the next data set is tubulin. Description: Tubulin polymerization assay. In kind it is biochemical. Set-up: key: a compound showing 0 to 50% inhibition at 20 μM is reported as score 1; Score 2 compounds are defined as compound showing more than 50% inhibition at 20 μM and less than 50% inhibition at 5 μM; a compound showing more than 50% inhibition at 5 μM is reported as score 3. Particulars: tested at 20 μM and 5 μM. The method in brief:
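Cytoskeleton kit tubulin was run in a 10 µl final volume at 37 °C, with fluorescence read every minute for 1 h. Polymerization was taken as the maximum slope (4-point linear regression) and expressed as % of no-compound control. Compounds were tested at 20 µM, then at 5 µM if inhibition exceeded 50%, and scored by % inhibition.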

`CCc1cc2ccc(C(C)(C#N)Cc3cccc(C#N)[n+]3[O-])cc2[nH]c1=O` (stereo not drawn) [Compound 228] returned a melting point of 121 °C. The IC50 in the data set with PC-3 cells is 3.16 µM.

For `CCc1cc2ccc(C(C)(C#N)Cc3nc(Cl)cc(OC)n3)cc2[nH]c1=O` (stereo not drawn) [Compound 202], the melting point worked out at 162 °C. Besides, the tubulin polymerisation score with tubulin is 2. Besides, the IC50 in the data set with PC-3 cells (Alamar Blue) is 0.251 µM.

In the case of `CCc1cc2ccc(C(C)(C#N)Cc3nc(C#N)cc(OC)n3)cc2[nH]c1=O` (single isomer, unassigned) [Compound 204], the melting point was determined as 180 °C. Further, the “PC3 antiproliferative activity pIC50” value with PC-3 cells (PC3 cells) is 6.8.

`CCc1cc2ccc(C(C)(C#N)CN3CCN(c4ccccn4)CC3)cc2[nH]c1=O` (stereo not drawn) [Compound 233] returned a melting point of 209 °C. Also, the tubulin polymerisation score in the data set with tubulin was 1 (a compound showing 0 to 50% inhibition at 20 μM is reported as score 1). In addition, in the data set with PC-3 cells (Alamar Blue), the IC50 was 2 µM.

With `C#CCOc1cccc(CC(C)(C#N)c2ccc3cc(CC)c(=O)[nH]c3c2)c1` (stereo not drawn) [Compound 196], the melting point amounted to 141 °C. The compound also returned a tubulin polymerisation score with tubulin of 2. Moreover, the IC50 in the data set with PC-3 cells (Alamar Blue) was 1 µM.

Compound `CCc1cc2ccc(C(C)(C#N)Cc3cccc(N4CCC(N(C)C)C4)n3)cc2[nH]c1=O` (stereo not drawn) [Compound 209] showed a melting point of 154 °C. Besides, the IC50 in the data set with PC-3 cells (Alamar Blue) was 5.01 µM.

Take `CCc1cc2ccc(C(C)(C#N)Cc3cc(OC)ccc3F)cc2[nH]c1=O` (stereo not drawn) [Compound 171]: the melting point amounted to 160 °C. Besides, the IC50 in the data set on PC-3 cells was 0.2 µM.

The compound `CCCC(C#N)(Cc1ccccc1)c1ccc2cc(CC)c(=O)[nH]c2c1` (stereo not drawn) [Compound 31] came in with a melting point of 210 °C. Also, the IC50 in the data set on PC-3 cells is 3.16 µM.

The compound `CCc1cc2ccc(C(C)(C#N)Cc3cccc(C#Cc4cncn4C)n3)cc2[nH]c1=O` (stereo not drawn) [Compound 217] showed a melting point of 111 °C. Further, the IC50 in the data set with PC-3 cells (Alamar Blue) is 6.31 µM.

The compound `CCc1cc2ccc(C(C)(C#N)Cc3cccc(OCCS(C)(=O)=O)c3)cc2[nH]c1=O` (stereo not drawn) [Compound 201] registered a melting point of 55 °C. In addition, the IC50 with PC-3 cells was 5.01 µM.

As to `CCc1cc2ccc(C(C#N)(Cc3ccccc3)c3ccc(C#N)cc3)cc2[nH]c1=O` (stereo not drawn) [Compound 26], the melting point was determined as 255 °C. Also, the IC50 with PC-3 cells is more than 10 µM.

`CCc1cc2ccc(C(C)(C#N)Cc3cccc4c3CCN4)cc2[nH]c1=O` (stereo not drawn) [Compound 237] gave a melting point of 210 to 211 °C. Besides, the IC50 in the data set with PC-3 cells (Alamar Blue) is 6.31 µM.

`CCc1cc2ccc(C(C#N)(Cc3ccccc3)C(C)C)cc2[nH]c1=O` (stereo not drawn) [Compound 30] gave a melting point of 234 °C. For the same compound, in the data set with PC-3 cells, the IC50 is 6.31 µM.

The compound `CCc1cc2ccc(C(C)(C#N)Cc3cccc(-c4ccc[nH]4)c3)cc2[nH]c1=O` (stereo not drawn) [Compound 176] showed a melting point of 194 °C. Besides, the IC50 in the data set on PC-3 cells (Alamar Blue) is 5.01 µM.

Turning to `CCc1cc2ccc(C(C)(C#N)Cc3cccc(CCS(C)(=O)=O)c3)cc2[nH]c1=O` (stereo not drawn) [Compound 178], the melting point was 150 °C. Besides, in the data set with PC-3 cells (Alamar Blue), the IC50 is 10 µM.

Take `CCc1cc2ccc(C(C#N)(Cc3ccccc3)C3CC3)cc2[nH]c1=O` (stereo not drawn) [Compound 29]: the melting point was 186 °C. In addition, in the data set with PC-3 cells, the IC50 was 5.01 µM.

With `CCc1cc2ccc(C(C)(C#N)Cc3cccc(/C=N/OC)c3)cc2[nH]c1=O` (stereo not drawn) [Compound 185], the melting point was found to be 170 °C. Also, in the data set on PC-3 cells, the IC50 was 0.251 µM.

`CCc1cc2c(OC)cc(C(C)(C#N)Cc3nc(OC)cc(OC)n3)cc2[nH]c1=O` (stereo not drawn) [Compound 229]: the melting point is 180 °C. The IC50 in the data set on PC-3 cells (Alamar Blue) was 5.01 µM.

`CCc1cc2ccc(C(C)(C#N)Cc3cccc(OCCCN4CCNCC4)c3)cc2[nH]c1=O` (stereo not drawn) [Compound 25]: the melting point came to 50 °C. Besides, the IC50 with PC-3 cells was 6.31 µM.

`CCc1cc2ccc(C(C)(C#N)Cc3nc(N(C)C)cc(N(C)C)n3)cc2[nH]c1=O` (stereo not drawn) [Compound 205] displayed a melting point of 194 °C. Further, the IC50 with PC-3 cells (Alamar Blue) was 1.26 µM.

The compound `CCc1cc2ccc(C(C)(C#N)Cc3cccc(OCCCC#N)c3)cc2[nH]c1=O` (stereo not drawn) [Compound 194] came in with a melting point of 148 °C. Also, the tubulin polymerisation score with tubulin is 2. Also, the IC50 with PC-3 cells is 0.631 µM.

As for `CCc1cc2ccc(C(C#N)(Cc3ccccc3)c3ccccc3)cc2[nH]c1=O` (stereo not drawn) [Compound 27], the melting point stood at 229 °C. Moreover, the IC50 with PC-3 cells is 6.31 µM.

The compound `CCc1cc2ccc(C(C)(C#N)Cc3cccc(OCCC#N)c3)cc2[nH]c1=O` (stereo not drawn) [Compound 195] returned a melting point of 161 °C. Moreover, the tubulin polymerisation score with tubulin is given as 1 (a compound showing 0 to 50% inhibition at 20 μM is reported as score 1). In addition, the IC50 with PC-3 cells (Alamar Blue) was 0.251 µM.

`CCc1cc2ccc(C(C)(C#N)Cc3cccc(N(C)CCc4ccccc4)n3)cc2[nH]c1=O.Cl` (stereo not drawn) [Compound 220] returned a melting point of 99 °C. The IC50 in the data set on PC-3 cells (Alamar Blue) is 7.94 µM.

As to `Cc1nc(-c2ccccc2)sc1CC(C)(C#N)c1ccc2cc(C)c(=O)[nH]c2c1` (stereo not drawn) [Compound 235], the tubulin polymerisation score in the data set with tubulin is given as 1 (a compound showing 0 to 50% inhibition at 20 μM is reported as score 1). Moreover, the IC50 in the data set with PC-3 cells (Alamar Blue) is 1.58 µM.

As for `CCc1cc2ccc(C(C)(C#N)Cc3cc(Br)cc(N(C)C)c3)cc2[nH]c1=O` (stereo not drawn) [Compound 260], the tubulin polymerisation score in the data set on tubulin came out at 2. Also, in the data set on PC-3 cells (Alamar Blue), the IC50 was 0.2 µM.
